Source: EPA's ToxValDB 9.5

Assays:
Rattus norvegicus [1] = details: oral
Rattus norvegicus [2] = details: oral; remark: listed apart in the source
Rattus norvegicus [3] = assay: FEL; higher = less toxic; details: duration: 14 days, oral, gavage, Crl:CD(SD)
Mus musculus = details: uterotrophic; duration: 3 days; oral; Active
[4] = acute, gavage, M, Wistar, Central Nervous System: Novel object recognition test
[5] = chronic, duration: 110 days, gavage, M, Sprague-Dawley, Adrenal: Progesterone (P4)
[6] = chronic, duration: 110 days, gavage, M, Sprague-Dawley, Kidney: Blood Urea Nitrogen (BUN) + Kidney: Creatinine (CREAT), Blood + Liver: Alkaline Phosphatase (ALP), Blood + Liver: Bile Acids, Blood
[7] = chronic, duration: 110 days, gavage, M, Sprague-Dawley, Liver: Liver Histopathology + Liver: Triglycerides (TRIG), Blood
[8] = chronic, duration: 110 days, gavage, M, Sprague-Dawley, Liver: Total Bilirubin (TBILI), Blood + Whole Body: Body Weight Change (0-110d) + Whole Body: Body Weight Change (60-90d) + Whole Body: Body…
[9] = chronic, duration: 110 days, gavage, M, Sprague-Dawley, Testis: Testes, Non-Neoplastic Lesions + Whole Body: Body Weight, Absolute
[10] = chronic, duration: 110 days, gavage, M, Sprague-Dawley, Testis: Testosterone (T)
[11] = reproduction developmental, duration: 14 days, gavage, F, Crl:CD(SD), generation: P0, P0: Heart: Heart Weight, Absolute + P0: Liver: Liver Weight, Relative + P0: Pituitary: Pituitary Gland Weight, Absolute + P0: Spleen: Spleen…
[12] = reproduction developmental, duration: 42 days, gavage, M, Crl:CD(SD), generation: P0, P0: Adrenal Gland: Adrenal Gland, Atrophy of the cortex + P0: Adrenal: Adrenal Gland Weight, Absolute + P0: Blood: Albumin/Globulin (A/G) …
[13] = reproduction developmental, duration: 42 days, gavage, M, Crl:CD(SD), generation: P0, P0: Liver: Alkaline Phosphatase (ALP) + P0: Liver: Liver Weight, Relative + P0: Protein Fraction, Globulin alpha-2
[14] = short-term, duration: 2 weeks, gavage, M, Sprague-Dawley, Adrenal: Estradiol + Adrenal: Testosterone (T) + Testis: Testes Weight, Relative + Whole Body: Body Weight, Absolute
[15] = short-term, duration: 2 weeks, gavage, M, Sprague-Dawley, Liver: Cholesterol (CHOL), Total + Liver: Triglycerides (TRIG), Liver + Liver: Triglycerides (TRIG), Serum
[16] = short-term, duration: 2 weeks, gavage, M, Sprague-Dawley, Liver: Cholesterol (CHOL), Total + Pituitary: Leuteinizing hormone (LH) + Testis: Testes Weight, Absolute
[17] = short-term, duration: 2 weeks, gavage, M, Sprague-Dawley, Liver: Liver Weight, Absolute + Liver: Liver Weight, Relative
[18] = short-term, duration: 28 days, F, Sprague-Dawley, Multi-Organ: Cholesterol (CHOL), Total + Multi-Organ: Estradiol + Whole Body: Body Weight, Absolute
[19] = chronic, duration: 110 days, gavage, M, Sprague-Dawley, Reproductive: Decreased serum testosterone (44%)
[20] = developmental, duration: 47 days, gavage, M/F, Sprague-Dawley, Body Weight: Decreased body weight gain (20-30%) + Developmental: Decreases in pup body weight (only one litter had live pups) + Endocrine: …
[21] = short-term, duration: 14 days, gavage, M, Sprague-Dawley, Body Weight: 25% reduction in final body weight + Reproductive: Decreased serum testosterone (38%) and estradiol (~38%), and ultrastructural…
[22] = short-term, duration: 28 days, gavage, F, Sprague-Dawley, Endocrine: 40% reduced serum estradiol in pubertal females
[23] = subchronic, duration: 47 days, gavage, F, Sprague-Dawley, Hepatic: Single cell necrosis in females / hepatocellular hypertrophy in males and females at […] / bile duct proliferation at […] in …

## O=C(O)C(F)(F)C(F)(F)C(F)(F)C(F)(F)C(F)(F)C(F)(F)C(F)(F)C(F)(F)C(F)(F)C(F)(F)C(F)(F)F [Perfluorododecanoic acid]
Rattus norvegicus [1]; acute, gavage, M, Wistar, Brain: Brain Weight, Absolute + Central Nervous System: Elevated platform test (elevated plus test) + Central Nervous System: Forced Swim …
  NOAEL: 50 mg/kg-day
Rattus norvegicus [1]; acute, gavage, M, Wistar, Brain: Brain Weight, Relative + Central Nervous System: Elevated platform test (elevated plus test) + Central Nervous System: Novel object …
  LOAEL: 50 mg/kg-day
Rattus norvegicus [1]; [4]
  LOAEL: 20 mg/kg-day
  NOAEL: 5 mg/kg-day
Rattus norvegicus [1]; [5]
  LOAEL: 0.2 mg/kg-day
  NOAEL: 0.02 mg/kg-day
Rattus norvegicus [1]; [6]
  LOAEL: 0.2 mg/kg-day
  NOAEL: 0.05 mg/kg-day
Rattus norvegicus [1]; chronic, duration: 110 days, gavage, M, Sprague-Dawley, Kidney: Creatine Kinase (CK), Blood + Liver: Albumin (A), Blood + Liver: Liver Weight, Absolute + Liver: Liver Weight, Relative + Liver: Low…
  LOAEL: 0.02 mg/kg-day
Rattus norvegicus [1]; chronic, duration: 110 days, gavage, M, Sprague-Dawley, Leuteinizing hormone (LH) + Pancreas: Insulin + Pituitary: Follicle stimulating hormone (FSH) + Pituitary: Growth Hormone + Prostate: …
  NOAEL: 0.5 mg/kg-day
Rattus norvegicus [1]; chronic, duration: 110 days, gavage, M, Sprague-Dawley, Liver: Alanine Aminotransferase (ALT), Blood + Liver: Aspartate Aminotransferase (AST), Blood + Liver: Cholesterol (CHOL), Total, Blood + …
  NOAEL: 0.5 mg/kg-day
Rattus norvegicus [1]; [7]
  LOAEL: 0.05 mg/kg-day
  NOAEL: 0.02 mg/kg-day
Rattus norvegicus [1]; [8]
  LOAEL: 0.5 mg/kg-day
  NOAEL: 0.2 mg/kg-day
Rattus norvegicus [1]; [9]
  LOAEL: 0.5 mg/kg-day
  NOAEL: 0.2 mg/kg-day
Rattus norvegicus [1]; [10]
  LOAEL: 0.2 mg/kg-day
  NOAEL: 0.05 mg/kg-day
Rattus norvegicus [1]; developmental, duration: 14 days, gavage, F, Crl:CD(SD), generation: F1, F1: Whole Body: Body Weight, Fetal, PND0 + F1: Whole Body: Body Weight, Fetal, PND1 + F1: Whole Body: Body Weight, Fetal, PND4
  NOAEL: 0.5 mg/kg-day
Rattus norvegicus [1]; developmental, duration: 14 days, gavage, M, Crl:CD(SD), generation: F1, F1: Whole Body: Body Weight, Fetal, PND0 + F1: Whole Body: Body Weight, Fetal, PND1 + F1: Whole Body: Body Weight, Fetal, PND4
  NOAEL: 0.5 mg/kg-day
Rattus norvegicus [1]; reproduction developmental, duration: 14 days, gavage, F, Crl:CD(SD), generation: P0, P0: Adrenal Gland: Adrenal Gland, Atrophy of the cortex + P0: Bone Marrow: Bone Marrow, Decrease in hematopoiesis + P0: Forestomach: …
  NOAEL: 2.5 mg/kg-day
Rattus norvegicus [1]; reproduction developmental, duration: 14 days, gavage, F, Crl:CD(SD), generation: P0, P0: Adrenal: Adrenal Gland Weight, Absolute + P0: Adrenal: Adrenal Gland Weight, Relative + P0: Blood: Activated Partial Thromboplastin Time…
  NOAEL: 0.5 mg/kg-day
Rattus norvegicus [1]; reproduction developmental, duration: 14 days, gavage, F, Crl:CD(SD), generation: P0, P0: Blood: Hematocrit (HCT) + P0: Blood: Hematocrit (HCT), Recovery + P0: Blood: Hemoglobin (HGB), Recovery + P0: Blood: Mean Corpuscular …
  LOAEL: 2.5 mg/kg-day
Rattus norvegicus [1]; [11]
  LOAEL: 0.5 mg/kg-day
  NOAEL: 0.1 mg/kg-day
Rattus norvegicus [1]; reproduction developmental, duration: 14 days, gavage, F, Crl:CD(SD), generation: P0, P0: Multi-Organ: Protein Fraction, Albumin
  LOAEL: 0.1 mg/kg-day
Rattus norvegicus [1]; reproduction developmental, duration: 14 days, gavage, M/F, Crl:CD(SD), generation: F1, F1: Uterus: Fetuses, Dead + F1: Uterus: Fetuses, Live + F1: Whole Body: Live Birth Index + F1: Whole Body: Live Pups on Lactation Day 4 + F1…
  NOAEL: 0.5 mg/kg-day
Rattus norvegicus [1]; [12]
  LOAEL: 2.5 mg/kg-day
  NOAEL: 0.5 mg/kg-day
Rattus norvegicus [1]; reproduction developmental, duration: 42 days, gavage, M, Crl:CD(SD), generation: P0, P0: Adrenal: Adrenal Gland Weight, Relative + P0: Basophils + P0: Blood: Activated Partial Thromboplastin Time (APTT) + P0: Blood: …
  NOAEL: 2.5 mg/kg-day
Rattus norvegicus [1]; [13]
  LOAEL: 0.5 mg/kg-day
  NOAEL: 0.1 mg/kg-day
Rattus norvegicus [1]; [14]
  LOAEL: 5 mg/kg-day
  NOAEL: 1 mg/kg-day
Rattus norvegicus [1]; [15]
  LOAEL: 10 mg/kg-day
  NOAEL: 5 mg/kg-day
Rattus norvegicus [1]; [16]
  LOAEL: 10 mg/kg-day
  NOAEL: 5 mg/kg-day
Rattus norvegicus [1]; [17]
  LOAEL: 5 mg/kg-day
  NOAEL: 1 mg/kg-day
Rattus norvegicus [1]; short-term, duration: 2 weeks, gavage, M, Sprague-Dawley, Pituitary: Follicle stimulating hormone (FSH)
  NOAEL: 10 mg/kg-day
Rattus norvegicus [1]; short-term, duration: 28 days, F, Sprague-Dawley, Leuteinizing hormone (LH) + Multi-Organ: Follicle stimulating hormone (FSH) + Ovary: Follicle Count, Antral + Ovary: Follicle Count, …
  NOAEL: 3 mg/kg-day
Rattus norvegicus [1]; [18]
  LOAEL: 3 mg/kg-day
  NOAEL: 1.5 mg/kg-day
Rattus norvegicus [2]; acute, duration: 1 days, gavage, M, Wistar, Body Weight: 44% decrease in body weight gain (measured 10-days post-exposure) + Neurological: Impaired performance on novel object …
  LOAEL: 50 mg/kg-day
Rattus norvegicus [2]; acute, duration: 1 days, gavage, M, Wistar, Neurological: No alterations in open field activity + Neurological: No alterations in tests of working memory or depressive behavior
  NOAEL: 50 mg/kg-day
Rattus norvegicus [2]; chronic, duration: 110 days, gavage, M, Sprague-Dawley
  NOAEL: 0.5 mg/kg-day
Rattus norvegicus [2]; [19]
  LOAEL: 0.2 mg/kg-day
  NOAEL: 0.05 mg/kg-day
Rattus norvegicus [2]; [20]
  LOAEL: 2.5 mg/kg-day
  NOAEL: 0.5 mg/kg-day
Rattus norvegicus [2]; [21]
  LOAEL: 5 mg/kg-day
  NOAEL: 1 mg/kg-day
Rattus norvegicus [2]; short-term, duration: 14 days, gavage, M, Sprague-Dawley, Hepatic: 35% increase in total serum cholesterol at 10 mg/kg/day
  NOAEL: 10 mg/kg-day
Rattus norvegicus [2]; short-term, duration: 14 days, gavage, M, Sprague-Dawley, Hepatic: Increased liver weight, increased hepatic triglyceride and cholesterol levels at ?5 mg/kg/day / increased serum triglyceride …
  NOAEL: 10 mg/kg-day
Rattus norvegicus [2]; [22]
  LOAEL: 3 mg/kg-day
  NOAEL: 1 mg/kg-day
Rattus norvegicus [2]; subchronic, duration: 47 days, gavage, F, Sprague-Dawley, Death: 58% mortality
  LOAEL: 2.5 mg/kg-day
Rattus norvegicus [2]; [23]
  LOAEL: 2.5 mg/kg-day
  NOAEL: 0.5 mg/kg-day
Rattus norvegicus [2]; subchronic, duration: 47 days, gavage, M/F, Sprague-Dawley
  NOAEL: 2.5 mg/kg-day
Rattus norvegicus [3]; developmental, F, generation: F1, F1: Whole Body: Body Weight, Fetal, PND0 + F1: Whole Body: Body Weight, Fetal, PND1 + F1: Whole Body: Body Weight, Fetal, PND4
  FEL: 2.5 mg/kg-day
Rattus norvegicus [3]; developmental, M, generation: F1, F1: Whole Body: Body Weight, Fetal, PND1 + F1: Whole Body: Body Weight, Fetal, PND4
  FEL: 2.5 mg/kg-day
Rattus norvegicus [3]; reproduction developmental, F, generation: P0, P0: Adrenal: Adrenal Gland Weight, Absolute + P0: Adrenal: Adrenal Gland Weight, Relative + P0: Blood: Albumin/Globulin (A/G) Ratio + P0: …
  FEL: 2.5 mg/kg-day
Rattus norvegicus [3]; reproduction developmental, M/F, generation: F1, F1: Uterus: Fetuses, Dead + F1: Whole Body: Live Birth Index + F1: Whole Body: Male Pups per Pups Sexed + F1: Whole Body: Number of litters
  FEL: 2.5 mg/kg-day

## O=C(O)C(F)(F)C(F)(F)C(F)(F)C(F)(F)C(F)(F)C(F)(F)C(F)(F)F [Perfluorooctanoic acid]
Mus musculus
  LEL: 0.01 mg/kg-day
Rattus norvegicus [2]; acute, duration: 1 days, M, Wistar, Neurological: No alteration in performance on novel object recognition test
  NOAEL: 50 mg/kg-day
Rattus norvegicus [2]; developmental, duration: 21 days, F, Wistar, Developmental: 17-18% reduced motor coordination and increased locomotor activity in pups on PNDs 34-35
  LOAEL: 1.6 mg/kg-day
Rattus norvegicus [2]; short-term, duration: 1 weeks, M, Wistar
  NOAEL: 38 mg/kg-day
Rattus norvegicus [2]; short-term, duration: 1 weeks, M, Wistar, Hepatic: Significant increase in absolute and relative liver weight at ?4.7 mg/kg/day
  NOAEL: 9.5 mg/kg-day
Rattus norvegicus [2]; short-term, duration: 14 days, M, Sprague-Dawley, Hepatic: 45% increase in relative liver weight
  NOAEL: 20 mg/kg-day
Rattus norvegicus [2]; short-term, duration: 28 days, M, Sprague-Dawley, Neurological: Cachexia and lethargy
  LOAEL: 5 mg/kg-day
